Assay results as given in paper PMC7570910, “8-Hydroxyquinoline Glycoconjugates Containing Sulfur at the Sugar Anomeric Position—Synthesis and Preliminary Evaluation of Their Cytotoxicity” (Molecules, 2020).

Test system: MCF-7 cells
Experiment: Influence of metal ions on cellular proliferation (MTT with Cu2+), MCF-7
Format: cell-based
Details: Homo sapiens, MCF7; MTT assay, 72 h, addition of copper acetate at 100 µM
Description: (§1) Cultured cancer cells, in contrast to in vivo environment, are characterized by a low copper level. Therefore, additional experiments were carried out for compounds whose expected mechanism of action is based on the chelation of metal ions. The antiproliferative activities of glycoconjugates 67, 68, 70, and 71 were tested in the presence of Cu^2+ ions. The effect of the interaction of glycoconjugate complexes with metal ions on cell proliferation was measured by adding a copper salt solution to the growth medium and observing the rate of cell growth compared to copper-untreated cells.
(§2) During the appropriate experiments, the cells (MCF-7, HCT-116, and NHDF-Neo) were treated with solutions of glycoconjugate 67, 68, 70, or 71 in medium culture, supplemented with 100 µM copper acetate, and then their proliferation was measured by the MTT assay. The control system was cells suspended in medium supplemented with DMSO in the amount used to dissolve the compounds and the addition of the same amount of copper. […] The highest cytotoxic activity of the compounds was observed against the MCF-7 cell line. […] This confirmed the strong sensitivity of breast cancer cells to 8-HQ derivatives.
It can be seen that the greatest differences in cell survival occurred in the case of MCF-7 cell lines. A significant decrease in the proliferation of MCF-7 cells was observed after treatment with glycoconjugates at a concentration of 50 µM in the presence of Cu^2+ (cell viability 10–28%), compared to experiments with glycoconjugates alone. In this case, the cytotoxicity of glycoconjugates increased about three-fold in the presence of Cu(II) ions. […] For HCT-116 and NHDF-Neo cell lines, only slight differences in cell viability were observed after treatment with free compounds and when […] ions were added.
(§3) The cells were seeded into 96-well plates at concentration 1 × 10^4 (HCT 116, NHDF-Neo) or 5 × 10^3 (MCF-7) per well. The cell cultures were incubated for 24 h at 37 °C in a humidified atmosphere of 5% CO2. Then, the culture medium was removed, replaced with the solution of the tested compounds in medium with varying concentrations. Additionally, 100 µM solution of Cu(CH3COO)2 was added into wells with tested compounds. After 24 h or 72 h incubation, the MTT assay was performed.

IC50 [µM] | Structure (SMILES)
25.9 ± 1.76 | CC(=O)OC[C@H]1O[C@@H](Sc2ccc(NC(=O)OCc3cn(CCCOc4cccc5cccnc45)nn3)cn2)[C@H](OC(C)=O)[C@@H](OC(C)=O)[C@@H]1OC(C)=O [Compound 70]
23.8 ± 0.48 | CC(=O)OC[C@H]1O[C@@H](Sc2ccc(NC(=O)Cn3cc(COc4cccc5cccnc45)nn3)cn2)[C@H](OC(C)=O)[C@@H](OC(C)=O)[C@H]1OC(C)=O [Compound 68]

Continued, molecule first:

Structure (SMILES) | IC50 [µM]
CC(=O)OC[C@H]1O[C@@H](Sc2ccc(NC(=O)Cn3cc(COc4cccc5cccnc45)nn3)cn2)[C@H](OC(C)=O)[C@@H](OC(C)=O)[C@@H]1OC(C)=O [Compound 67] | 28.9 ± 1.52
CC(=O)OC[C@H]1O[C@@H](Sc2ccc(NC(=O)OCc3cn(CCCOc4cccc5cccnc45)nn3)cn2)[C@H](OC(C)=O)[C@@H](OC(C)=O)[C@H]1OC(C)=O [Compound 71] | 20.5 ± 1.55

Test system: HCT-116 cells
Experiment: MTT cytotoxicity assay, HCT-116
Format: cell-based
Details: Homo sapiens, incubation time 24 h, mean ± SD (n = 3)

Structure (SMILES) | IC50 [µM]
OC[C@H]1O[C@@H](SCc2cn(CCCOc3cccc4cccnc34)nn2)[C@H](O)[C@@H](O)[C@H]1O [Compound 64] | > 800
CC(=O)OC[C@H]1O[C@@H](Sc2ccc(NC(=O)OCc3cn(CCCOc4cccc5cccnc45)nn3)cn2)[C@H](OC(C)=O)[C@@H](OC(C)=O)[C@@H]1OC(C)=O [Compound 70] | 63.5 ± 2.37
CC(=O)OC[C@H]1O[C@@H](Sc2ccc(NC(=O)Cn3cc(COc4cccc5cccnc45)nn3)cn2)[C@H](OC(C)=O)[C@@H](OC(C)=O)[C@@H]1OC(C)=O [Compound 67] | 146 ± 3.49
CC(=O)OC[C@H]1O[C@@H](Sc2ccc(NC(=O)Cn3cc(COc4cccc5cccnc45)nn3)cn2)[C@H](OC(C)=O)[C@@H](OC(C)=O)[C@H]1OC(C)=O [Compound 68] | 130 ± 1.31
CC(=O)OC[C@H]1O[C@@H](Sc2ccc(NC(=O)OCc3cn(CCCOc4cccc5cccnc45)nn3)cn2)[C@H](OC(C)=O)[C@@H](OC(C)=O)[C@H]1OC(C)=O [Compound 71] | 90.68 ± 0.52
CC(=O)OC[C@H]1O[C@@H](SCc2cn(CCCOc3cccc4cccnc34)nn2)[C@H](OC(C)=O)[C@@H](OC(C)=O)[C@@H]1OC(C)=O [Compound 59] | 173 ± 3.48

Test system: Normal Human Dermal Fibroblasts-Neonatal (NHDF-Neo)
Experiment: MTT cytotoxicity assay, NHDF-Neo
Format: cell-based
Details: incubation time 24 h, mean ± SD (n = 3)
Description: (§4) In vitro cytotoxicity studies of the obtained building blocks and glycoconjugates were carried out on cell lines characterized by the high expression of GLUT transporters and the strongly changed glucose metabolism (strong Warburg effect). […] Cytotoxicity was evaluated using the MTT assay.
[…] […] The culture media were purchased from EuroClone and HyClone. Fetal bovine serum (FBS) was delivered by EURx, Poland, and Antibiotic Antimycotic Solution (100×) by Sigma-Aldrich, Germany. The cells were cultured under standard conditions at 37 °C in a humidified atmosphere at 5% CO2.
(§5) The viability of the cells was determined using an MTT (3-[4,5–dimethylthiazol-2-yl]-2,5-diphenyltetrazolium bromide) test (Sigma-Aldrich). Stock solutions of tested compounds were prepared in DMSO and diluted with the appropriate volumes of the growth medium directly before the experiment. […] The cell cultures were incubated for 24 h at 37 °C in a humidified atmosphere of 5% CO2. Then, the culture medium was removed, replaced with the solution of the tested compounds in medium with varying concentrations, and incubated for further 24 h or 72 h. After that, the medium was removed, and the MTT solution (50 µL, 0.5 mg/mL in PBS) was added. After 3 h of incubation, the MTT solution was removed, and the precipitated formazan was dissolved in DMSO. Finally, the absorbance at the 570 nm wavelength was measured spectrophotometrically with the plate reader. The experiment was conducted in at least three independent iterations with four technical repetitions. The IC50 values were calculated using CalcuSyn software (version 2.0, Biosoft, Cambridge, UK).

Structure (SMILES) | IC50 [µM]
CC(=O)OC[C@H]1O[C@@H](Sc2ccc(NC(=O)OCc3cn(CCCOc4cccc5cccnc45)nn3)cn2)[C@H](OC(C)=O)[C@@H](OC(C)=O)[C@@H]1OC(C)=O [Compound 70] | 64 ± 5.34
CC(=O)OC[C@H]1O[C@@H](Sc2ccc(NC(=O)Cn3cc(COc4cccc5cccnc45)nn3)cn2)[C@H](OC(C)=O)[C@@H](OC(C)=O)[C@@H]1OC(C)=O [Compound 67] | 71.8 ± 6.7
CC(=O)OC[C@H]1O[C@@H](Sc2ccc(NC(=O)Cn3cc(COc4cccc5cccnc45)nn3)cn2)[C@H](OC(C)=O)[C@@H](OC(C)=O)[C@H]1OC(C)=O [Compound 68] | 111 ± 2.78
CC(=O)OC[C@H]1O[C@@H](Sc2ccc(NC(=O)OCc3cn(CCCOc4cccc5cccnc45)nn3)cn2)[C@H](OC(C)=O)[C@@H](OC(C)=O)[C@H]1OC(C)=O [Compound 71] | 75.26 ± 0.38
CC(=O)OC[C@H]1O[C@@H](SCc2cn(CCCOc3cccc4cccnc34)nn2)[C@H](OC(C)=O)[C@@H](OC(C)=O)[C@@H]1OC(C)=O [Compound 59] | 229.1 ± 2.06

Test system: MCF-7 cells
Experiment: MTT cytotoxicity assay, MCF-7
Format: cell-based
Details: Homo sapiens, MCF7, incubation time 72 h, mean ± SD (n = 3)
Description: as §4
The human cell line MCF-7 was obtained from collections at the Maria Sklodowska-Curie Memorial Cancer Center and Institute of Oncology, branch in Gliwice, Poland. […] The culture media were purchased from EuroClone and HyClone. Fetal bovine serum (FBS) was delivered by EURx, Poland, and Antibiotic Antimycotic Solution (100×) by Sigma-Aldrich, Germany. The cells were cultured under standard conditions at 37 °C in a humidified atmosphere at 5% CO2.
as §5

Structure (SMILES) | IC50 [µM]
OC[C@H]1O[C@@H](SCc2cn(CCCOc3cccc4cccnc34)nn2)[C@H](O)[C@@H](O)[C@H]1O [Compound 64] | > 800
CC(=O)OC[C@H]1O[C@@H](Sc2ccc(NC(=O)OCc3cn(CCCOc4cccc5cccnc45)nn3)cn2)[C@H](OC(C)=O)[C@@H](OC(C)=O)[C@@H]1OC(C)=O [Compound 70] | 67.5 ± 1.58
CC(=O)OC[C@H]1O[C@@H](Sc2ccc(NC(=O)Cn3cc(COc4cccc5cccnc45)nn3)cn2)[C@H](OC(C)=O)[C@@H](OC(C)=O)[C@@H]1OC(C)=O [Compound 67] | 69.7 ± 3.5
CC(=O)OC[C@H]1O[C@@H](Sc2ccc(NC(=O)Cn3cc(COc4cccc5cccnc45)nn3)cn2)[C@H](OC(C)=O)[C@@H](OC(C)=O)[C@H]1OC(C)=O [Compound 68] | 96.3 ± 5.99
CC(=O)OC[C@H]1O[C@@H](Sc2ccc(NC(=O)OCc3cn(CCCOc4cccc5cccnc45)nn3)cn2)[C@H](OC(C)=O)[C@@H](OC(C)=O)[C@H]1OC(C)=O [Compound 71] | 68.3 ± 3.68
CC(=O)OC[C@H]1O[C@@H](SCc2cn(CCCOc3cccc4cccnc34)nn2)[C@H](OC(C)=O)[C@@H](OC(C)=O)[C@@H]1OC(C)=O [Compound 59] | 153.3 ± 0.25

Test system: Normal Human Dermal Fibroblasts-Neonatal (NHDF-Neo)
Experiment: Influence of metal ions on cellular proliferation (MTT with Cu2+), NHDF-Neo
Format: cell-based
Details: MTT assay, 24 h, addition of copper acetate at 100 µM
Description: as §1, §2, §3

Structure (SMILES) | IC50 [µM]
CC(=O)OC[C@H]1O[C@@H](Sc2ccc(NC(=O)OCc3cn(CCCOc4cccc5cccnc45)nn3)cn2)[C@H](OC(C)=O)[C@@H](OC(C)=O)[C@@H]1OC(C)=O [Compound 70] | 68.4 ± 1.11
CC(=O)OC[C@H]1O[C@@H](Sc2ccc(NC(=O)Cn3cc(COc4cccc5cccnc45)nn3)cn2)[C@H](OC(C)=O)[C@@H](OC(C)=O)[C@@H]1OC(C)=O [Compound 67] | 71.4 ± 1.35
CC(=O)OC[C@H]1O[C@@H](Sc2ccc(NC(=O)Cn3cc(COc4cccc5cccnc45)nn3)cn2)[C@H](OC(C)=O)[C@@H](OC(C)=O)[C@H]1OC(C)=O [Compound 68] | 83.6 ± 3.03
CC(=O)OC[C@H]1O[C@@H](Sc2ccc(NC(=O)OCc3cn(CCCOc4cccc5cccnc45)nn3)cn2)[C@H](OC(C)=O)[C@@H](OC(C)=O)[C@H]1OC(C)=O [Compound 71] | 69.3 ± 2.9

Test system: HCT-116 cells
Experiment: Influence of metal ions on cellular proliferation (MTT with Cu2+), HCT-116
Format: cell-based
Details: Homo sapiens, MTT assay, 24 h, addition of copper acetate at 100 µM
Description: as §1, §2, §3

IC50 [µM] | Structure (SMILES)
73.9 ± 2.99 | CC(=O)OC[C@H]1O[C@@H](Sc2ccc(NC(=O)OCc3cn(CCCOc4cccc5cccnc45)nn3)cn2)[C@H](OC(C)=O)[C@@H](OC(C)=O)[C@@H]1OC(C)=O [Compound 70]
96.01 ± 0.59 | CC(=O)OC[C@H]1O[C@@H](Sc2ccc(NC(=O)Cn3cc(COc4cccc5cccnc45)nn3)cn2)[C@H](OC(C)=O)[C@@H](OC(C)=O)[C@H]1OC(C)=O [Compound 68]

Continued, molecule first:

Structure (SMILES) | IC50 [µM]
CC(=O)OC[C@H]1O[C@@H](Sc2ccc(NC(=O)Cn3cc(COc4cccc5cccnc45)nn3)cn2)[C@H](OC(C)=O)[C@@H](OC(C)=O)[C@@H]1OC(C)=O [Compound 67] | 74.5 ± 0.16
CC(=O)OC[C@H]1O[C@@H](Sc2ccc(NC(=O)OCc3cn(CCCOc4cccc5cccnc45)nn3)cn2)[C@H](OC(C)=O)[C@@H](OC(C)=O)[C@H]1OC(C)=O [Compound 71] | 83 ± 1.37

Target: T1, β-galactosidase from Aspergillus oryzae (Aspergillus oryzae, UniProt Q2UCU3)
T1 construct: purchased Sigma-Aldrich G5160
T1 sequence (Q2UCU3 19-1005): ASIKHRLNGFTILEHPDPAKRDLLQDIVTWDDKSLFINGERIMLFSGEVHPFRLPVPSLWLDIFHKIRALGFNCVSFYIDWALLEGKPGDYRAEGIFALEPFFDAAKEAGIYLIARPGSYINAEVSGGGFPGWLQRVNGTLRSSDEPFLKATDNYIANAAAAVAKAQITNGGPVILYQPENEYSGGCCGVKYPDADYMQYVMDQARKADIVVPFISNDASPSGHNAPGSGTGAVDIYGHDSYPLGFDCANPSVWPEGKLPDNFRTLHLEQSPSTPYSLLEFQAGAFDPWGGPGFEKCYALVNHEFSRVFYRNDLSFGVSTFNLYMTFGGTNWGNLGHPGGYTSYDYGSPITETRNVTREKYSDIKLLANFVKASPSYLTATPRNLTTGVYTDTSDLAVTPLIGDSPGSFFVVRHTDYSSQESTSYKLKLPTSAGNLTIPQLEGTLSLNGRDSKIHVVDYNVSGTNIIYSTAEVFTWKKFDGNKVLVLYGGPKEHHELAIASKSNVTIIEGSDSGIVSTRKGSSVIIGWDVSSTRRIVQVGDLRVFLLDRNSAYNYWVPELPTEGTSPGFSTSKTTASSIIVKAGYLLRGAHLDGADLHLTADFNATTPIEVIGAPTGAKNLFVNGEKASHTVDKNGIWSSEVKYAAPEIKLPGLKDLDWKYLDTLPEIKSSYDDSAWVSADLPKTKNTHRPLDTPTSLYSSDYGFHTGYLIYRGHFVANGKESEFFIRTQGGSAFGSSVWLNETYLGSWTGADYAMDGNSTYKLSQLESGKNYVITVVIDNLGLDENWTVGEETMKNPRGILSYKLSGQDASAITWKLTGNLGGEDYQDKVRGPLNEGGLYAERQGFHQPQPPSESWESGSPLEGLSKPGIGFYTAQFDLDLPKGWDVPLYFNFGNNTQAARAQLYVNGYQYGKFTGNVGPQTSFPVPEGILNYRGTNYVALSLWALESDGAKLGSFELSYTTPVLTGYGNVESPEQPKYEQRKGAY
Experiment: Glycoconjugate stability under the action of β-galactosidase (hydrolysis followed by TLC)
Format: in vitro ADME
Details: 0.089 unit enzyme, 5 mM substrate, phosphate-citrate buffer pH 4.5, 30 °C, TLC at 10 min to 24 h
Description: As part of the research, the effect of introducing a sulfur atom into the anomeric position of sugar was assessed. […] This was particularly evident for the 8-HQ derivatives 51 and 52, for which the cytotoxic activity was about twice as high as that of their structural counterparts with an anomeric oxygen atom (Figure 3). Unfortunately, an increase in cytotoxicity for glycoconjugates containing anomeric sulfur was observed, both to neoplastic cells and to healthy cells. […] In order to verify this assumption, two galactoconjugates 56 and 64 (being the deprotected counterparts of galactoconjugates 52 and 60) and their two analogs with anomeric oxygen were chosen and subjected to hydrolysis reactions using β-galactosidase from Aspergillus oryzae.
8-Hydroxyquinoline Glycoconjugates Containing
Sulfur at the Sugar Anomeric Position - Synthesis and Preliminary Evaluation of Their Cytotoxicity […]
The following reagents were pipetted into a test tube: 0.4 mL of 20 mM Phosphate-Citrate Buffer (C) and 0.5 mL of the appropriate 10 mM Substrate Solution ( D1-D4), which then thoroughly mixed and equilibrated to 30 °C with a thermoblock. […] The progress of the reactions was monitored by thin-layer chromatography (TLC) in a CHCl3:CH3OH (5:1) eluents system. […]

Structure (SMILES) | Hydrolysis in the presence of β-galactosidase
OC[C@H]1O[C@@H](SCc2cn(CCCOc3cccc4cccnc34)nn2)[C@H](O)[C@@H](O)[C@H]1O [Compound 64] | did not undergo hydrolysis
